The source of these data is US20100055111A1, “INDOLEAMINE 2,3-DIOXYGENASE, PD-1/PD-L PATHWAYS, AND CTLA4 PATHWAYS IN THE ACTIVATION OF REGULATORY T CELLS” (Med. College of Georgia Research Institute, Inc., priority 2007, published 2010).

“Also recorded” adds a separate entry of the source.

Assay [1] relates to TDLN cells. It is filed as in vivo, mouse.
For assay [2], the system named is Tregs. The assay can be described thus: Treg activation culture and readout assays (agent in pre-activation step). It is filed as cell-based, mouse. Conditions: for IDO-induced Treg activation (suppressor activity of re-sorted Tregs in readout assays): agent added to activation (pre-activation) cultures with TDLN pDCs + OT-I + feeder cells, 1MT 200 uM, anti-CTLA4 10 ug/ml, tryptophan 250 uM, readout A1 T cells + CBA DCs. On the procedure:
Treg activation culture and readout assays. […] The pDC fraction (CD11c^+B220^+) was sorted from 2-6 pooled TDLNs (day 7-11 of tumor growth) and collected in medium on ice. […] […] […] After two days, cultures were harvested, stained for CD4, and Tregs isolated by sorting for CD4^+ cells. […] Re-sorted Tregs were added to readout assays containing 1×10^5 A1 cells, 2×10^3 CD11c^+ DCs from CBA spleen (or 5×10^4 B cells, as CD11c^NEG B220^+ spleen cells), plus H-Y peptide. For assays performed in transwells, Multiwell 96-well insert plates (1 uM pore size, BD-Falcon) were used and the number of cells in all groups was doubled.
Feeder layer. […] As a feeder layer we added T cell-depleted spleen cells (1×10^5 sorted CD4^NEGCD8^NEG cells) to all assays.
Resting Tregs, from spleens of mice without tumors, were co-cultured with IDO^+ DCs from TDLNs, then re-sorted and transferred to readout assays (A1 T cells+CBA DCs) to measure suppression. […] Co-cultures also contained a feeder layer of T-depleted spleen cells as described in the Methods section. After 30-48 hours, co-cultures were harvested and the Tregs recovered by sorting for CD4^+ cells. Since the Tregs were the only CD4^+ cells in the co-cultures, they could be unambiguously recovered.

Assay [3] deals with Tregs. The assay can be described thus: DC adoptive transfer. It is filed as in vivo, mouse. Conditions: recipient mice treated with sustained-release 1MT pellets 5 mg/day; Tregs sorted after 4 days. The text has this: DC adoptive transfer. […] Briefly, total CD11c^+ DCs were sorted from TDLNs, pulsed with […] peptide (SEQ ID NO:1), and 5×10^4 DCs injected subcutaneously into each anteriomedial thigh of recipient mice. Recipients had been pre-loaded one day before DC injection with 5×10^6 sorted CD8^+ OT-I cells. After four days, the inguinal LNs draining the site of DC injection were removed, and CD4^+CD25^+ Tregs were isolated by cell sorting.
IDO^+ DCs from TDLNs activate Tregs in vivo. To test the hypothesis that Treg activation in TDLNs might be related to the presence of IDO-expressing DCs, the DC population (CD11c^+ cells) from TDLNs was isolated and transferred to new, non-tumor-bearing hosts. […] Four days after DC transfer, host Tregs were sorted from LNs draining the site of DC injection and tested for suppressor activity. […] Thus, the DC fraction from TDLNs, by itself, was sufficient to activate resting Tregs in new hosts, in an IDO-dependent fashion.

Assay [4] concerns Foxp3. The assay can be described thus: Foxp3 upregulation in naive CD4+CD25NEG A1 T cells in cocultures with IDO+ pDCs. The class given is cell-based, mouse. As for the experimental part: FACS staining. Antibodies were from BD-Pharmingen unless otherwise noted. […] For intracellular staining of CHOP, live cells were first blocked for 10 minutes with mouse Fc Block (BD Pharmingen) in 10% fetal calf serum medium, stained with anti-CD4-FITC for 30 minutes on ice, washed with PBS, then fixed and permeablized for 20 minutes in 250 μl Cytoperm/Cytofix solution (BD Pharmingen) on ice. All subsequent staining and wash steps were in BD Permwash solution. […] For Foxp3 staining, assays omitted A1 bystander cells and Tregs were identified by CD4 expression, as for CHOP staining.
Therefore, whether IDO would induce naive CD4+ cells to differentiate into Foxp3^+ cells in this system was studied. Cocultures were set up as shown for FIG. 6A, comprising IDO^+ pDCs, OT-I, feeder cells, mature Tregs (Thy1.1 congenic), plus a population of CD4^+CD25^NEG T cells (naive male-specific A1 T cells isolated from female mice). CBA splenic DCs were also added to serve as APCs for the A1 cells. After two days, co-cultures were harvested and stained for intracellular Foxp3.

In assay [5] the test system is CHOP. As to the kind of experiment: Intracellular staining for CHOP in Treg activation cultures. The class given is cell-based, mouse. Conditions: 2 days. On the procedure: (§1) FACS staining. Antibodies were from BD-Pharmingen unless otherwise noted. Anti-mouse CD25-APC conjugate (clone PC61, cat. #17-0251-81) was from eBioscience; this conjugate gave brighter signal and better separation of CD25^+ cells than other conjugates from other suppliers. For intracellular staining of CHOP, live cells were first blocked for 10 minutes with mouse Fc Block (BD Pharmingen) in 10% fetal calf serum medium, stained with anti-CD4-FITC for 30 minutes on ice, washed with PBS, then fixed and permeablized for 20 minutes in 250 μl Cytoperm/Cytofix solution (BD Pharmingen) on ice. All subsequent staining and wash steps were in BD Permwash solution. Fixed cells were stained with 1:100 dilution of monoclonal anti-gadd153/CHOP (sc-7351, Santa Cruz Biotechnology), washed, and stained with secondary monoclonal rat anti-mouse-IgG1-PE (#550083, BD Biosciences). […] For Foxp3 staining, anti-Foxp3-PE antibody (clone FJK-16s) was obtained from eBioscience and used per the manufacturer's protocol. For Foxp3 staining, assays omitted A1 bystander cells and Tregs were identified by CD4 expression, as for CHOP staining. Biotinylated anti-PD-L1 (clone MIH5) and anti-PD-L2 (clone TY25) were purchased from eBioscience.
GCN2-kinase is required for Treg activation. […] Treg activation cultures were set up as in FIG. 2, and CHOP expression measured by intracellular staining after two days.

Assay [6] deals with OT-I cells in TDLNs. As to the kind of experiment: CFSE labeling and T cell adoptive transfer. It is filed as in vivo, mouse. Conditions: B16-OVA tumors, 4 days after transfer. The text has this:
CFSE labeling and T cell adoptive transfer. Mice were implanted with B16-OVA tumors. […] After four days, the TDLNs and contralateral LNs (CLN) were harvested and stained for 1B11 (BD-Pharmingen) vs. CD8.

In assay [7] the test system is Tregs. As to the kind of experiment: Mixed co-cultures with bystander A1 cells. The class given is cell-based, mouse. As for the experimental part: A1 T cells and CBA DCs were added directly to the Treg pre-activation assay at the start of culture. Thus, the combined cultures comprised IDO^+ pDCs, OT-I T cells, Tregs, A1 T cells, CBA splenic DCs, and feeder layer. […] However, the mixed co-cultures addressed the specific question of whether IDO and activated Tregs could produce effective levels of suppression rapidly enough that they could suppress the bystander A1 cells before they could begin dividing. […] In each case, parallel titrations were performed with or without the addition of anti-CD3 mAb. […] In the absence of Tregs there was substantial proliferation of T cells in co-cultures, despite the presence of IDO^+ pDCs. However, the addition of fewer than 5000 Tregs was sufficient to suppress proliferation of all cells in culture. […] Thus, the results of the mixed co-culture model were similar to those using the separate pre-activation and re-sorting step.
In FIG. 12A, mixed co-cultures were established as in FIG. 11, comprising Treg activation cultures (IDO^+ pDCs, OT-I cells, Tregs, and feeder layer) plus the direct addition of CFSE-labeled CD4^+ sorted A1 T cells plus CBA DCs plus HY peptide. After 2-3 days the mixed co-cultures were harvested and stained for CD25 versus CFSE. […] In FIG. 12B, IDO-activated Tregs were sorted as described in FIG. 2 and added to readout assays of A1 cells plus CBA DCs plus HY peptide. […]

Assay [8] relates to PD-L1 and PD-L2. As to the kind of experiment: PD-L1 and PD-L2 staining of DCs in readout assays. The class given is cell-based, mouse. Conditions: Tregs from pre-activation cultures in which IDO was blocked with 1MT. On the procedure:
as §1, with “For Foxp3 staining, assays omitted A1 bystander cells and Tregs were identified by CD4 expression, as for CHOP staining. Biotinylated anti-PD-L1 (clone MIH5) and anti-PD-L2 (clone TY25) were purchased from eBioscience.” left out
After 24 hours, cultures were harvested and stained for PD-L1 and PD-L2 relative to CD11c. […] In FIG. 3D, IDO-activated Tregs (1×10^4/well) and anti-CD3/IL-2-activated Tregs (2×10^4/well) were prepared as in the previous panel, and added to readout assays with or without recombinant IL-2, anti-IL-10 plus anti-TGF-β blocking antibodies (100 μg/ml each), or PD-1/PD-L blocking antibodies. […]

Assay [9] deals with Lewis Lung carcinoma. Conditions: Friberg et al., 2002; cited from earlier work.
Assay [10] relates to P815. Conditions: Uyttenhove et al., 2003; concomitant administration of 1-MT; cited from earlier work.
Assay [11] deals with Tregs in TDLNs. The conditions noted are these: sustained-release 1MT throughout tumor growth.
Method: Recombinant mouse IL-2 (R&D Systems) was used at 10 ng/ml.
Tregs from day seven TDLNs were sorted and added to readout assays (A1 T cells plus CBA DCs), with and without PD-1/PD-L blocking antibodies. […] Tregs from day seven tumors were tested in readout assays as above, with added isotype, PD-1/PD-L blocking antibodies, or a combination of anti-PD-1/PD-L plus IL-2 plus anti-IL-10/TGF-β antibodies.
Assay [12] relates to anti-CD3-activated Tregs. As to the kind of experiment: Readout assays: suppression by anti-CD3/IL-2-activated Tregs. It is filed as cell-based, mouse. The conditions noted are these: agent added to readout assay. On the procedure: Treg activation culture and readout assays. […] The pDC fraction (CD11c^+B220^+) was sorted from 2-6 pooled TDLNs (day 7-11 of tumor growth) and collected in medium on ice. Pre-activation cultures contained 2×10^3 pDCs, 1×10^5 sorted CD8^+ OT-I cells, 100 nM […] peptide (SEQ ID NO:1), and 5×10^3 sorted CD4^+CD25^+ Tregs from spleens of B6 mice without tumors. All cultures received a feeder layer of 1×10^5 T cell-depleted spleen cells (CD4^NEGCD8^NEG), as described below. […] After two days, cultures were harvested, stained for CD4, and Tregs isolated by sorting for CD4^+ cells. […] Re-sorted Tregs were added to readout assays containing 1×10^5 A1 cells, 2×10^3 CD11c^+ DCs from CBA spleen (or 5×10^4 B cells, as CD11c^NEG B220^+ spleen cells), plus H-Y peptide. For assays performed in transwells, Multiwell 96-well insert plates (1 uM pore size, BD-Falcon) were used and the number of cells in all groups was doubled.
After 24 hours, cultures were harvested and stained for PD-L1 and PD-L2 relative to CD11c. […] In FIG. 3D, IDO-activated Tregs (1×10^4/well) and anti-CD3/IL-2-activated Tregs (2×10^4/well) were prepared as in the previous panel, and added to readout assays with or without recombinant IL-2, anti-IL-10 plus anti-TGF-β blocking antibodies (100 μg/ml each), or PD-1/PD-L blocking antibodies. Bars show SD for replicate wells in one of four similar experiments; *p<0.01 by ANOVA.

The subject of assay [13] is IDO-activated Tregs. The assay can be described thus: Readout assays: suppression of A1 T cell proliferation by IDO-activated Tregs (agent in readout assay). Conditions: agent added to readout assay (A1 T cells + wild-type CBA DCs); antibodies 50 ug/ml each. It is filed as cell-based, mouse. On the procedure:
Treg activation culture and readout assays. […] The pDC fraction (CD11c^+B220^+) was sorted from 2-6 pooled TDLNs (day 7-11 of tumor growth) and collected in medium on ice. […] All cultures received a feeder layer of 1×10^5 T cell-depleted spleen cells (CD4^NEGCD8^NEG), as described below. […] After two days, cultures were harvested, stained for CD4, and Tregs isolated by sorting for CD4^+ cells. […] Re-sorted Tregs were added to readout assays containing 1×10^5 A1 cells, 2×10^3 CD11c^+ DCs from CBA spleen (or 5×10^4 B cells, as CD11c^NEG B220^+ spleen cells), plus H-Y peptide. For assays performed in transwells, Multiwell 96-well insert plates (1 uM pore size, BD-Falcon) were used and the number of cells in all groups was doubled.

As for `O=P1(N(CCCl)CCCl)NCCCO1` (centres unmarked) [cyclophosphamide], the “suppressor activity of TDLN cells after in vivo treatment” value in [1] (B78H1-GMCSF tumors treated day 11, CY 150 mg/kg, 1MT pellets, TDLN cells 7 days later, readout BM3 T cells + B6 splenocytes) is recorded as “only slightly”.

With `N[C@@H](Cc1c[nH]c2ccccc12)C(=O)O` [tryptophan], the “IDO-induced Treg activation (suppressor activity of re-sorted Tregs in readout assays)” value in assay [2] is “blocked”.

Take `Cn1cc(C[C@@H](N)C(=O)O)c2ccccc21` [1MT, 1-methyl-D-tryptophan]: in [1] (1MT added to the readout assays), the “suppression by TDLN cells of untreated control mice” value is recorded as “not affected”. Besides, the “activation of host Tregs by DCs from TDLNs” value in assay [3] is recorded as “blocked”. In assay [4] (CFSE-labeled A1 and OT-I cells), the “cell division of A1 cells (CFSE)” value is listed as “divided”. Moreover, the “upregulation of Foxp3 in A1 cells” value in [4] (with H-Y peptide, 2 days) is reported as “prevented”. Further, the “CHOP expression in OT-I cells” value in [5] is recorded as “abrogated”. Moreover, in assay [5] (anti-Ia^b 100 ug/ml), the “CHOP induction in Tregs” value was “prevented”. For the same molecule, the “1B11 activation marker on OT-I in TDLNs” value in assay [6] (oral 1MT 2 mg/ml in drinking water) was “uniformly upregulate”. For the same molecule, in assay [6] (oral 1MT), the “cell division of OT-I in TDLNs (CFSE)” value is recorded as “not able to undergo extensive cell division”. In addition, the “IDO-induced Treg activation (suppressor activity of re-sorted Tregs in readout assays)” value in assay [2] was “no suppressor activity; also recorded: complete abrogation of activation; also recorded: minimal suppression; also recorded: completely abolished”. In addition, the Treg activation result in assay [2] (feeder layer replaced by recombinant cytokines (IFNα + IL-10 + TGF-β1)) is “abrogated”. In [7] (IDO blocked by 1MT, 10-fold more Tregs, absence of anti-CD3 mAb), the “suppressor activity of Tregs in mixed co-cultures” value is given as “no spontaneous suppressor activity”. Further, the “division of A1CFSE cells in mixed co-cultures” value in [7] (plus 1MT, 2-3 days) was “able to divide”. Moreover, the “PD-ligand expression by DCs in readout assays” value in [8] is listed as “low”. In addition, in assay [9], the tumor outgrowth entry is given as “significantly delayed”. Besides, the “effect of IDO transfection of P815 on tumor growth in pre-immunized hosts” value in assay [10] is “substantially reversed”. The “PD-1/PD-L-dependent type of Treg activity in TDLNs” value in [11] is “none”.

B1: recombinant IL-2: Recombinant mouse IL-2 (R&D Systems), used at 10 ng/ml (protein, UniProt P04351 21-169, looked up)
Interleukin-2: APTSSSTSSSTAEAQQQQQQQQQQQQHLEQLLMDLQELLSRMENYRNLKLPRMLTFKFYLPKQATELKDLQCLEDELGPLRHVLDLTQSKSFQLEDAENFISNIRVTVVKLKGSDNTFECQFDDESATVVDFLRRWIAFCQSIISTSPQ
As for B1, the “suppression by anti-CD3-activated Tregs” value in assay [12] was “fully reversed”. Further, the “suppression of T cell proliferation by IDO-activated Tregs” value in assay [13] is recorded as “no effect”.
